# Data as given in patent publication US5106854A, “Quinolinecarboxylic acids” (Shionogi & Co., Ltd., priority 1988, dated 1992).
# Structures can show the parent of a compound that is named as a salt.
# How the values were obtained:
# Format in all cases: cell-based
# [1] = test system: Staphylococcus aureus SMITH; experiment: Antibacterial spectrum, minimum growth inhibitory concentration (MIC), strain A; settings: 10^6 cells/ml, Japan Society of Chemotherapy method
# Method: (§1) The antibacterial activity was determined by measuring minimum growth inhibitory concentrations (MICs) in accordance with the method designated by the Japan Society of Chemotherapy. A, B, C and D in the table indicate the following meanings: A: Staphylococcus aureus SMITH The test microorganisms were used at 10^6 cells/ml.
# [2] = test system: Staphylococcus aureus SR 14 (R); experiment: Antibacterial spectrum, minimum growth inhibitory concentration (MIC), strain B; settings: 10^6 cells/ml, Japan Society of Chemotherapy method
# Method: The antibacterial activity was determined by measuring minimum growth inhibitory concentrations (MICs) in accordance with the method designated by the Japan Society of Chemotherapy.
# A, B, C and D in the table indicate the following meanings:
# B: Staphylococcus aureus SR 14 (R)
# The test microorganisms were used at 10^6 cells/ml.
# Escherichia coli EC-14 = experiment: Antibacterial spectrum, minimum growth inhibitory concentration (MIC), strain C; settings: EC14, 10^6 cells/ml, Japan Society of Chemotherapy method
# Method: as §1, with “C: Escherichia coli EC-14” for “A: Staphylococcus aureus SMITH”
# [3] = test system: Escherichia coli SR377 (R); experiment: Antibacterial spectrum, minimum growth inhibitory concentration (MIC), strain D; settings: 10^6 cells/ml, Japan Society of Chemotherapy method
# Method: as §1, with “D: Escherichia coli SR377 (R).” for “A: Staphylococcus aureus SMITH”
Structure (SMILES),MIC [1],MIC [2],MIC (Escherichia coli EC-14),MIC [3]
"CN[C@@H]1CN(c2c(F)c(N)c3c(=O)c(C(=O)O)cn(C4CC4)c3c2F)C[C@@H]1OC (relative stereo) [Compound I-11, 1-Cyclopropyl-5-amino-6,8-difluoro-1,4-dihydro-7-(cis-3-methylamino-4-methoxy-1-pyrrolidinyl)-4-oxo-3-quinolinecarboxylic acid]",0.05 mg/L,0.05 mg/L,0.05 mg/L,0.1 mg/L
"CO[C@H]1CN(c2c(F)c(N)c3c(=O)c(C(=O)O)cn(C4CC4)c3c2F)C[C@H]1N (relative stereo) [Compound I-5, 1-Cyclopropyl-5-amino-6,8-difluoro-1,4-dihydro-7-(cis-3-amino-4-methoxy-1-pyrrolidinyl)-4-oxo-3-quinolinecarboxylic acid]",0.02 mg/L,0.05 mg/L,0.02 mg/L,0.05 mg/L
"CO[C@@H]1CN(c2c(F)c(N)c3c(=O)c(C(=O)O)cn(C4CC4)c3c2F)C[C@@H]1N [Compound I-3, (+)-1-Cyclopropyl-5-amino-6,8-difluoro-1,4-dihydro-7-(cis-3-amino-4-methoxy-1-pyrrolidinyl)-4-oxo-3-quinolinecarboxylic acid hydrochloride]",0.05 mg/L,0.05 mg/L,0.02 mg/L,0.1 mg/L
"CC1COc2c(N3CCN(C)CC3)c(F)cc3c(=O)c(C(=O)O)cn1c23 (stereo not shown) [OFLX, ofloxacin, reference compound]",0.2 mg/L,0.4 mg/L,0.1 mg/L,0.1 mg/L

# Further compounds by falling MIC [1], results first:
MIC [1],MIC [2],MIC (Escherichia coli EC-14),MIC [3],Structure (SMILES)
0.1 mg/L,0.1 mg/L,0.1 mg/L,0.2 mg/L,"CN[C@H]1CN(c2c(F)c(N)c3c(=O)c(C(=O)O)cn(C4CC4)c3c2F)C[C@H]1OC [Compound I-1, (+)-1-Cyclopropyl-5-amino-6,8-difluoro-1,4-dihydro-7-(cis-3-methylamino-4-methoxy-1-pyrrolidinyl)-4-oxo-3-quinolinecarboxylic acid hydrochloride]"
0.05 mg/L,0.05 mg/L,0.05 mg/L,0.1 mg/L,"CN[C@@H]1CN(c2c(F)c(N)c3c(=O)c(C(=O)O)cn(C4CC4)c3c2F)C[C@@H]1OC.Cl [Compound I-2, (-)-1-Cyclopropyl-5-amino-6,8-difluoro-1,4-dihydro-7-(cis-3-methylamino-4-methoxy-1-pyrrolidinyl)-4-oxo-3-quinolinecarboxylic acid hydrochloride]"
0.02 mg/L,0.02 mg/L,0.02 mg/L,0.05 mg/L,"CO[C@H]1CN(c2c(F)c(N)c3c(=O)c(C(=O)O)cn(C4CC4)c3c2F)C[C@H]1N [Compound I-4, (-)-1-Cyclopropyl-5-amino-6,8-difluoro-1,4-dihydro-7-(cis-3-amino-4-methoxy-1-pyrrolidinyl)-4-oxo-3-quinolinecarbxylic acid hydrochloride]"
